This data set in a line: Human HepG2 cell viability assay in 384 well format. Type of data set: toxicity, cell-based. More on the design: dose 125 nL, time 70.5 hour; concentration not given beside the values. The following applies: HepG2 cells, read-out: Inhibition.
As for `COCCNC(=O)C(C)n1nc(-c2ccc(C)o2)cc(N)c1=O` (stereo not given), the cytotoxicity at 70.5 h was 39.4%. `Cc1cc2c(cc1Cl)C=CC1(CCN(CC(=O)N3CCOCC3)CC1)O2`: the cytotoxicity at 70.5 h came out at 25.7%. Then `COc1ccc(C(C)N(C)Cc2c(C(C)(C)C)[nH]c3ncccc23)cc1` (stereo not given), with 12.9%. Then `CO[C@H]1CN(C(=O)c2cn3cc(C)ccc3n2)CC[C@@]12CCCO2`, with -17.2%; and `CNC(=O)CCc1cc(C2CCCN2S(C)(=O)=O)nc(C)n1` (stereo not given), with -12.2%. As for `c1ccc(CO[C@H]2CN(c3ncccn3)C[C@@]23CCCO3)cc1`, the figure is -11.5%; as for `CN1CCCC1c1ccc(N2CCOCC2)cn1` (stereo not given), -16.8%; as for `CCN(CC)S(=O)(=O)N1CCCC1c1nnc2n1CCN(C)CC2` (stereo not given), -10.9%.

Consider `CN1C[C@H](c2ccccc2)[C@H]2CN(C(=O)Cc3ccc(O)cc3)CC[C@H]21`, for which the cytotoxicity at 70.5 h was found to be 22.7%. As for `Cc1ccc(-c2noc(C3CCN3C(=O)c3ccc(=O)[nH]n3)n2)s1` (stereo not given), the figure is -4.22%. As for `Cc1ccc(-c2noc(C3CCN3C(=O)c3cc[nH]n3)n2)s1` (stereo not given), the figure is -14.3%. As for `CC(=O)N[C@H]1CCO[C@@H](c2cccc(NC(=O)c3cccc(F)c3)c2)C1`, the figure is -8.41%. With `CN(C)C(=O)CN1CCC(c2c(C(N)=O)sc3ncccc23)C1` (stereo not given), the cytotoxicity at 70.5 h was -5.25%.

As for `CN(C)S(=O)(=O)N1CCCC(c2nccnc2-c2cccc(Cl)c2)C1` (stereo not given), the cytotoxicity at 70.5 h is -1.8%. For `Cn1cccc1C(=O)NCc1ccnc(C2CCCOC2)n1` (stereo not given), the cytotoxicity at 70.5 h was -4.4%. Then `O=C(CCc1ccc(Cl)cc1)N[C@@H]1CC[C@@H](O)[C@@H]1O`, with -6.03%; and `c1ccc(C2Cn3ccnc3CN2Cc2ncc[nH]2)cc1` (stereo not given), with -1.58%.

As for `Cc1cc(-c2cc3nc(C)c(C)c(NCC4COCCO4)n3n2)no1` (stereo not given), the cytotoxicity at 70.5 h was -5.97%. Regarding `O=C(c1cccnc1)N1CCOC(Cc2ccccc2Cl)C1` (stereo not given), the cytotoxicity at 70.5 h worked out at 0.0235%.

For the compound `Cn1ccc(C(=O)N2CCC(Cc3ccc4ncccc4c3)CC2)n1`, the cytotoxicity at 70.5 h stood at 14.8%. For `OCCc1cc(C2CCCN2c2ncccn2)n[nH]1` (stereo not given), the cytotoxicity at 70.5 h is -2.35%.

On to `Cc1ccnc(C2COCCN2C)n1` (stereo not given), for which the cytotoxicity at 70.5 h was -3.5%.

`CN(C)C(=O)CN1CCCC(c2nccnc2-c2cccc(Cl)c2)C1` (stereo not given): the cytotoxicity at 70.5 h worked out at 1.03%. As for `CNC(=O)c1sc2ncccc2c1C1CCN(C(=O)CCOC)C1` (stereo not given), the figure is -8.16%. `CC(C)(C)C(=O)N1CCCC1c1cc(CO)[nH]n1` (stereo not given): the cytotoxicity at 70.5 h was -1.34%. Then `COc1ccc(C2CN(c3cc(C)ncn3)CCN2C(C)=O)cc1` (stereo not given), with -5.95%; and `CN1CCc2nc(C3CCCN(S(=O)(=O)c4ccccc4)C3)ncc2C1` (stereo not given), with -1.43%; and `CC(NC(=O)C(C)(C)C)c1cc(O)nc(-c2cccnc2)n1` (stereo not given), with -5.99%. Then `CCc1c(C)nn2c(O)cc(C3CCN(C(=O)c4cnn(C)c4)C3)nc12` (stereo not given), with -0.531%; and `Cc1cc(C(=O)N2CCN(c3ncc4c(n3)CCOC4)CC2)sc1C`, with 2.24%. Then `Cc1sc(Oc2ccccc2Cl)nc1C(=O)O`, with 7.28%; and `CCCn1cc(CN2CCOCC2c2[nH]ncc2C)cn1` (stereo not given), with -2.99%. Consider `CCOCC(=O)N1CCC(C)(c2nccs2)CC1`, for which the cytotoxicity at 70.5 h worked out at 13.6%. Then `CN(C)Cc1cccc(-c2cccnc2C(=O)NCc2cn(C)cn2)c1`, with -1.14%. Consider `O=C(Cc1cccs1)NCc1ccnc(C2CCCOC2)n1` (stereo not given), for which the cytotoxicity at 70.5 h is 3.29%. Then `Cc1cc(C)nc(N2CC[C@H](Oc3ccccc3F)[C@@H](O)CC2)n1`, with -3.75%; and `COCC(=O)N1CCc2nc(-c3cnccn3)nc(O)c2C1`, with -8.12%.

On to `Cc1ccc2[nH]c(=O)c(CNCCCN3CCOCC3)cc2c1`, for which the cytotoxicity at 70.5 h was -8.68%.

Take `O=C(Cc1ccccn1)N1CCc2c(O)nc(-c3cnccn3)nc2C1`: the cytotoxicity at 70.5 h was -6.46%. As to `Cc1ccc2cc(CNCCCN3CCOCC3)c(=O)[nH]c2c1C`, the cytotoxicity at 70.5 h is -8.68%. `CC(C)(C)C(=O)N1CCC(n2nc(-c3ccco3)ccc2=O)CC1`: the cytotoxicity at 70.5 h was -4.38%. As for `O=C1NCC2(CCCN(Cc3ccc(F)cc3)C2)Oc2ccccc21` (stereo not given), the figure is -1.98%; as for `O=C(CCc1ccccc1)N1CCCC(c2n[nH]c3nccnc23)C1` (stereo not given), -6.72%.

As to `CSc1ccc(CN2CCCC3(CNC(=O)c4ccccc4O3)C2)cc1` (stereo not given), the cytotoxicity at 70.5 h is 2.19%. As for `CCc1nc2ccccc2c(=O)n1CC1(O)CCN(C(=O)C(C)C)CC1`, the figure is -8.49%; as for `O=C(Cc1ccsc1)N1CCCC(c2n[nH]c3ncccc23)C1` (stereo not given), -5.61%; as for `CS(=O)(=O)N1CCC(C(=O)NC(Cc2ccsc2)c2cccnc2)CC1` (stereo not given), 23.2%.

For `Cc1nc(C2CCN(C(=O)c3cscn3)CC2)c2sccn12`, the cytotoxicity at 70.5 h was -1.33%. As for `Cc1cc(-c2cnn(CCNC(=O)c3cnn(C)c3)c2C2CC2)on1`, the figure is -2.33%; as for `CCc1cccc2cc(CNCCCN3CCOCC3)c(=O)[nH]c12`, 0.0251%. As for `Cc1cccc(CN2CCC(c3nnsc3S(C)(=O)=O)CC2)n1`, the figure is -4.43%; as for `CS(=O)(=O)c1snnc1C1CCN(Cc2cccnc2)CC1`, 8.4%; as for `CNc1ncc(CN2CCC(c3nnsc3S(C)(=O)=O)CC2)cn1`, -7.26%. As for `Cc1ccc(C(=O)N2CCC[C@@H]2Cn2nnc3c(O)nc(C)nc32)cc1`, the figure is -2.37%; as for `Cc1cc(C)c2cc(CNC3CCCCC3)c3nn(C)c(=O)n3c2c1`, 5.59%; as for `Cc1cc(C)c2cc(CNCc3ccco3)c3nn(C)c(=O)n3c2c1`, 19.9%. As to `CCCn1ncc(CN2C[C@@H]3CCCN3C[C@@H]2Cc2ccccc2)c1C`, the cytotoxicity at 70.5 h was -2.55%.

As to `CCCN(C(=O)c1cccnc1)c1nc2c(s1)CCc1c-2cnn1C`, the cytotoxicity at 70.5 h turned out to be 21%. As for `Cc1cc(-c2ccccc2C(=O)O)nc(C2CCCCN2C)n1` (stereo not given), the figure is -6.42%. Then `Cc1cc(-c2cc(F)ccc2C(=O)O)nc(C2CCCN(C)C2)n1` (stereo not given), with 2.71%; and `CC(C)N1CCC(Cc2cncc(-c3cc(F)ccc3C(=O)O)n2)C1` (stereo not given), with -6.34%; and `CN(CCc1ccccc1)Cc1c(C2CCNCC2)[nH]c2ncccc12`, with -6.11%.

In the case of `CCc1onc(C)c1C(=O)N1CCN(c2ncc3c(n2)CCOC3)CC1`, the cytotoxicity at 70.5 h was -1.33%. Then `Cc1nc(O)cc(C2(C)CCCNC2)n1` (stereo not given), with -3.13%. As for `Cn1nc(C2CCCN(Cc3ccc(F)c(F)c3)C2)c2nccnc21` (stereo not given), the figure is 27.1%; as for `COc1cccc(CN2CCCC(c3nn(C)c4nccnc34)C2)c1` (stereo not given), 14.8%; as for `Cn1nc(C2CCN(C(=O)Cc3ccsc3)CC2)c2cccnc21`, -7.5%.

`Cn1nc(C2CCN(C(=O)CCN3CCOCC3)CC2)c2cccnc21`: the cytotoxicity at 70.5 h is -2.43%. Then `CCc1nc2ccccc2c(=O)n1CC1(O)CCN(C(=O)COC)CC1`, with -2.82%; and `OC[C@H]1CC[C@]2(CC1)CN(Cc1ccsc1)Cc1ccccc1O2`, with 7.87%.

The values above are taken from ChEMBL document CHEMBL3507680, “University of Dundee, Gates Library screen for HepG2 cell viability”.
